# Data taken from patent US20040102485A1, “Tartrate salt of thiazolidinedione derivative” (priority 2003, published 2004).
# Assay: Solid state stability of the Meso-Tartrate (storage in glass bottle, HPLC assay for final content and degradation products)
# Type: physicochemical
# Details: 1 month
# Procedure: Solid State Stability of the Meso-Tartrate, recorded for the product of Example 1 The solid state stability of the drug substance was determined by storing approximately 1.0 g of the material in a glass bottle at i) 40° C./75% Relative Humidity (RH), open exposure, for 1 month and b) at 50° C., closed, for 1 month. The material was assayed by HPLC for final content and degradation products in both cases.
# [1] = 40° C./75% Relative Humidity (RH), open exposure
compound,measurement,setting,value
"CN(CCOc1ccc(CC2SC(=O)NC2=O)cc1)c1ccccn1.O=C(O)C(O)C(O)C(=O)O (stereo not drawn) [Example 1, 5-[4-[2-(N-methyl-N-(2-pyridyl)amino)ethoxy]benzyl]thiazolidine-2,4-dione Meso-Tartrate]",HPLC assay (final content),[1],97 % initial
same,"degradation (HPLC, degradation products)",[1],No significant degradation observed
same,HPLC assay (final content),"50° C., closed",98 % initial
same,"degradation (HPLC, degradation products)","50° C., closed",No significant degradation observed
